Experimental data taken from patent publication US5565441A, “Phosphonoacetic esters and acids as anti-inflammatories” (The Upjohn Company, priority 1995, dated 1996).
Like-named read-outs stand apart in the source and are kept apart here.

Tested on: DTH granuloma (DTH GRA) lesion in mBSA-sensitized mice
Test: Delayed Type Hypersensitivity Granuloma Assay (DTH GRA) model for inflammation
Type: in vivo, mouse
Conditions: for inhibition in vivo at 10 mg/kg: read-out: % Inhibition (DTH granuloma)
From the text: The Formula I compounds of this invention have been tested in a Delayed Type Hypersensitivity Granuloma Assay (DTH GRA) model for inflammation. This assay is described by Dunn, C. J. et al., "Development of a delayed-type hypersensitivity granuloma model in the mouse for the study of chronic immune-mediated inflammatory disease," Agents and Actions, 27, 3/4 (1989) and "Murine Delayed-Type Hypersensitivity Granuloma," Int. J. Immunopharmc., 12, 8, 899-904 (1990).
Briefly, mBSA-sensitized mice have a DTH granuloma (DTH GRA) lesion induced by subcutaneously implanting a mBSA-soaked filter which is excised after nine days. Compounds are administered to the mice to determine their effect on the lesions. The results are recorded as percent inhibition. […] Inhibition of 10 to 20% is considered to indicate anti-granuloma activity. Greater than 30% inhibition is good activity.

[1] = Mus musculus, 216 h, 10 MPK, PO, mBSA-sensitized mice, mBSA-soaked filter excised after nine days

| Compound | inhibition in vivo at 10 mg/kg [1] [%] | also measured |
| --- | --- | --- |
| CCOC(=O)C(CCC(=O)c1ccccc1)P(=O)(OCC)OCC (stereo not drawn) [Compound 1, Benzenepentanoic acid, α-(diethoxyphosphinyl)-δ-oxo-, ethyl ester] | – | inhibition in vivo at 50 mg/kg (Mus musculus, 216 h, at 50 MPK, PO, mBSA-sensitized mice, mBSA-soaked filter excised after nine days): 37% |
| COC(=O)C(CCC(=O)c1cccc(F)c1)P(=O)(OC)OC (stereo not drawn) [Compound 2, Benzenepentanoic acid, α-(dimethoxyphosphinyl)-3-fluoro-δ-oxo-,methyl ester] | 26 | – |
| CCOC(=O)C(CC(C(=O)c1ccccc1)c1ccccc1)P(=O)(OCC)OCC (stereo not drawn) [Compound 3, Benzenepentanoic acid, α-(diethoxyphosphinyl)-δ-oxo-γ-phenyl-, ethyl ester] | 21 | – |
| COC(=O)C(CCC(=O)c1cccnc1)P(=O)(OC)OC (stereo not drawn) [Compound 4, 3-Pyridinepentanoic acid, α-(dimethoxyphosphinyl)-δ-oxo-, methyl ester] | 37 | – |
| COC(=O)C(CCc1nc(-c2ccccc2)cc(=O)n1C)P(=O)(OC)OC (stereo not drawn) [Compound 6a, 2-Pyrimidinebutanoic acid, α-(dimethoxyphosphinyl)-1,6-dihydro-1-methyl-6-oxo-4-phenyl-, methyl ester] | 51 | – |
| COC(=O)C(CCc1nc(-c2ccccc2)cc(=O)n1C)P(=O)(O)O (stereo not drawn) [Compound 6b] | 37 | – |
| COC(=O)C(CCc1cc(C)nc2c(C#N)c(C)nn12)P(=O)(OC)OC (stereo not drawn) [Compound 7, Pyrazolo(1,5-a)pyrimidine-7-butanoic acid, 3-cyano-α-(dimethoxyphosphinyl)-2,5-dimethyl-, methyl ester] | 38 | – |
| CCOC(=O)C1=NNC(C(=O)OC)(P(=O)(OC)OC)C1 (stereo not drawn) [Compound 8, 1H-Pyrazole-5-carboxylic-acid, 3-carboethoxy-5-(dimethoxyphosphinyl)-4,5-dihydro, methyl ester] | – | % Inhibition (DTH granuloma) (10 MPK, PO, mBSA-sensitized mice, mBSA-soaked filter excised after nine days): 59% |
| COC(=O)C1(P(=O)(OC)OC)CC(C(=O)c2ccccc2)=NN1 (stereo not drawn) [Compound 9, 1H-Pyrazole-5-carboxylic acid, 3-benzoyl-5-(dimethoxyphosphinyl)-4,5-dihydro-, methyl ester] | 37 | – |
| COC(=O)C1(P(=O)(OC)OC)CC1C(=O)c1ccccc1 (stereo not drawn) [Compound 10, Cyclopropanecarboxylic acid, 2-benzoyl-1-(dimethoxyphosphinyl)-, methyl ester] | 47 | – |
| COC(=O)C1(P(=O)(OC)OC)CN1N1C(=O)c2ccccc2C1=O (stereo not drawn) [Compound 11, 2-Aziridinecarboxylic acid, 1-(1,3-dihydro-1,3-dioxo-2H-isoindol-2-yl)-2-(dimethoxyphosphinyl)-, methyl ester] | – | inhibition in vivo at 10 mg/kg (Mus musculus, po, 216 h): 42% |
| COP(=O)(OC)C(CCc1nc(-c2ccccc2)cc(=O)n1C)C(=O)OC(C)(C)C (stereo not drawn) [Compound 15, 2-Pyrimidine butanoic acid, α-(dimethoxyphosphinyl)-1,6-dihydro-1-methyl-6-oxo-4-phenyl, dimethylethyl ester] | 21 | – |
